For three molecules, IC50 results are on record in ChEMBL document CHEMBL5728847, “Cyanoindoline derivatives as NIK inhibitors” (2021).

The test deals with Mitogen-activated protein kinase kinase kinase 14 (Homo sapiens, UniProt Q99558). Put plainly: Inhibition of Auto-Phosphorylation of Recombinant Human NF-kappaB-Inducing Kinase (NIK1/AP3K14) Activity: NIK/MAP3K14 auto-phosphorylation activity was measured using the AlphaScreen® (αscreen) format (Perkin Elmer). All compounds tested were dissolved in dimethyl sulfoxide (DMSO) and further dilutions were made in assay buffer. Final DMSO concentration was […] in assays. Assay buffer was 50 mM Tris pH 7.5 containing 1 mM EGTA (ethylene glycol tetraacetic acid), 1 mM DTT (dithiothreitol), 0.1 mM Na3VO4, 5 mM MgCl2, 0.01% Tween® 20. Assays were carried out in 384 well Alphaplates (Perkin Elmer). Incubations consisted of compound, 25 microM Adenosine-5′-triphosphate (ATP), and 0.2 nM NIK/MAP3K14. Incubations were initiated by addition of GST-tagged NIK/MAP3K14 enzyme, carried out for 1 h at 25° C. and terminated by addition of stop buffer containing anti-phospho-[…] Ser176/180 antibody. Protein A Acceptor and Glutathione-Donor beads were added before reading using an EnVision® Multilabel Plate Reader (Perkin Elmer). Signal obtained in the wells containing blank samples was subtracted from all other wells and IC50's were determined by fitting a sigmoidal curve to % inhibition of control versus Log10 compound concentration.
Mitogen-activated protein kinase kinase kinase 14, sequence (Q99558 whole entry): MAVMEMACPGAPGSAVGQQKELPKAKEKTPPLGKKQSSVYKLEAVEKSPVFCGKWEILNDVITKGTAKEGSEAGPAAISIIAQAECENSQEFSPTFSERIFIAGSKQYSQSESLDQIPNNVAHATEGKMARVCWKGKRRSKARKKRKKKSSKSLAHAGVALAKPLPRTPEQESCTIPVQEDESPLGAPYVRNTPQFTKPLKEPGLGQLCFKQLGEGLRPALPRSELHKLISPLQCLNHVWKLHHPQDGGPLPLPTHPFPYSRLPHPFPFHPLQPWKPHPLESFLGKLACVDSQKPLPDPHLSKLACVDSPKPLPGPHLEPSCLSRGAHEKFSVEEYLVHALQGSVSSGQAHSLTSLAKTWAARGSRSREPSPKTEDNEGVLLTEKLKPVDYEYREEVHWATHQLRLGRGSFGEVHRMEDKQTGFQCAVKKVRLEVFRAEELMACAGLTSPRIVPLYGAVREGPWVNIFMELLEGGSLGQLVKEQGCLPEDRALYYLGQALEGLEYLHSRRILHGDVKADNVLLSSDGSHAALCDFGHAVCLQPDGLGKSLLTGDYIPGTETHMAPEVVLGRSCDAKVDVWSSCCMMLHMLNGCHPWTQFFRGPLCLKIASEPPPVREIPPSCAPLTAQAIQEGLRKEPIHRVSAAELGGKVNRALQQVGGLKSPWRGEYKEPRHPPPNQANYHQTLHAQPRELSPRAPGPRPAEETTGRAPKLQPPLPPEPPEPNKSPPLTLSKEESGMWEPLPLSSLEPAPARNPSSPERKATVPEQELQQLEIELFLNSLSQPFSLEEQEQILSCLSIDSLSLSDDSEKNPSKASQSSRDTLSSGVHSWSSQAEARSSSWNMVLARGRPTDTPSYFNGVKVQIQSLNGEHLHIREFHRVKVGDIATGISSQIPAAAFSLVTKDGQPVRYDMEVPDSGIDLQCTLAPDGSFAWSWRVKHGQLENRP

`CN1CCc2ncc(Nc3ncc(F)c(-c4cc(C#N)c5c(c4)[C@@](C)(CO)CN5)n3)cc2C1`: the IC50 (commonly the concentration at which inhibition is half-maximal) was determined as 4.2 nM.
In the case of `CC1(C)CNc2c(C#N)cc(-c3ccnc(Nc4cc(Cl)cc5[nH]ccc45)n3)cc21`, the IC50 was found to be 148 nM.
For `COc1nc2c(cc1Nc1nccc(-c3cc(C#N)c4c(c3)[C@@](C)(CO)CN4)n1)CCN(C)C2`, the IC50 was determined as 1.8 nM.
